# Experimental data taken from patent US10174057B2, “Metallacrown complexes and methods of making the same” (THE REGENTS OF THE UNIVERSITY OF MICHIGAN, priority 2013, dated 2019).
# Experiments:
# [1] = Luminescence lifetimes under excitation at 355 nm; type: physicochemical; conditions: for τobs: 298 K, excitation 355 nm; for q (inner sphere hydration number): calculated from kCH3OH and kCD3OD
# Protocol: (§1) Luminescence data were collected on samples that were placed into 2.4 mm i.d. quartz capillaries or quartz Suprasil cells. Emission and excitation spectra were measured on a Horiba-Jobin-Yvon Fluorolog 3 spectrofluorimeter equipped with either a visible photomultiplier tube (PMT) (220-800 nm, R928P; Hamamatsu), a NIR solid-state InGaAs detector cooled to 77 K (800-1600 nm, DSS-IGA020L; Jobin-Yvon), or NIR PMTs (950-1450 nm, H10330-45; 950-1650 nm, H10330-75; Hamamatsu). All spectra were corrected for instrumental functions.
# Luminescence lifetimes were determined under excitation at 355 nm provided by a Nd:YAG laser (YG 980; Quantel), while the signal was detected in the NIR by the aforementioned PMT (H10330-75). The output signal from the detectors was then fed to a 500 MHz bandpass digital oscilloscope (TDS 754C; Tektronix) and then transferred to a PC for treatment with Origin 8®. Luminescence lifetimes are averages of at least three independent measurements.
# (§2) Luminescence spectra were recorded for the Ln(III) metallacrown complexes (Ln(III)=Yb, Nd, Er) in the solid state and in solution (CH3OH/CD3OD) using excitation at 420 nm or 370 nm.
# [2] = Quantum yields in the NIR, absolute method using an integration sphere; type: physicochemical; conditions: 298 K, excitation 370 nm
# Protocol: as §1
# Quantum yields in the NIR were determined with a Fluorolog 3 spectrofluorimeter according to an absolute method using an integration sphere (GMP SA). Each sample was measured several times under slightly different experimental conditions. Estimated experimental error for quantum yields determination is 10%.
# as §2
# [3] = system: HeLa (Human Epithelial Ovarian Carcinoma) cells; experiment: NIR epifluorescence microscopy on HeLa cells; type: cell-based
# Protocol: The preparation of the Yb(III) Metallacrowns and the description of the NIR Epifluorescence Microscopy are applicable for both experiments.
# Yb^3+[12-MC-4]2[24-MC-8] was prepared as described above, and was dissolved in DMSO at an appropriate concentration, and was used as such or was incubated with beads for incorporation therein.
# NIR epifluorescence microscopy was performed with an Axio Observer Z1 fluorescence inverted microscope (Zeiss, Le Pecq, France) equipped with an EMCCD Evolve 512 photometric camera (Roper Scientific). The EMCCD Evolve 512 photometric camera was linked to a computer driving the acquisition software Axiovision (Zeiss). The inverted microscope was equipped with Zeiss objectives (immersion Plan Apochromat 63x (Numerical Aperture (NA)=1.4), Plan Neofluar 40x (NA=0.75), Plan Apochromat 20x (NA=0.8)). A Zeiss HXP-120 light source (metal halide) was used as the excitation system, and was combined with a UV cube filter unit as follows: 377 nm band pass 50 nm filter for excitation, and long pass 805 nm filter for Yb(III) emission in the NIR range. […]
# NIR Epifluorescence Microscopy was used to observe the treated cells after 24 hours of incubation with Yb^3+[12-MC-4]2[24-MC-8] and the untreated cells. […] As illustrated in both FIGS. 8E and 8F, the emission in the NIR range for the untreated HeLa cells was not detected. […]
# [4] = Emission spectra and ligand energy levels (singlet, triplet, CT); type: physicochemical; conditions: for energy of the triplet state: determined on the 0-0 transition
# Protocol: FIG. 3 is a graph depicting the corrected and normalized emission spectra of quinHA (10 mg/mL) under excitation at 290 in methanol at 77 K and Gd(III) MC (10 mg/mL) under excitation at 290 nm or 340 nm in methanol at 298 K and 77 K;
# as §1
# At 77 K, strong green luminescence centered at 510 nm with a weak band in the 325-460 nm range. The latter band disappeared upon enforcing a delay of 100 μs, so it can be assigned to a short-lived fluorescence while the green emission is phosphorescence. The energy of the triplet state of quinHA, determined on the 0-0 transition, can therefore be estimated as 21 000 cm−1 (476 nm).
# The energy gap between ground and excited states for Gd(III) is very high and, therefore, it is impossible for the Gd(III) ion in the corresponding metallacrown complex to be sensitized with 300-400 nm excitation. It is believed that this feature can be used to determine the energy levels of the metallacrown complexes in the absence of energy transfer to the Ln(III) ion. The Gd(III) metallacrown complex was exposed to UV excitation into the ligand-based charge transfer band at 340 nm at room temperature, resulting in a weak broad-band emission with a maximum at 580-590 nm (FIG. 3). Lowering the temperature to 77 K led to a slight sharpening of the band and a shift of the maximum to 545-555 nm (FIG. 3). […] The position of the triplet state determined from the spectrum of Gd(III) metallacrown complex was the same as for quinHA within experimental error, 20 920 cm^−1 (478 nm). The position of the lowest excited singlet and the ligand-based charge transfer (CT) states were determined from the intersection of the absorption and emission (fluorescence) spectra of quinHA and Gd^3+[12-MC-4]2[24-MC-8], respectively, and found to be located at 29 850 cm^−1 (335 nm) and 21 560 cm^−1 ([…]). A proposed schematic diagram of the quinHA ligand's energy levels (singlet, triplet and CT) with respect to the energy levels of Yb(III), Nd(III) and Er(III) lanthanide ions and possible energy migration paths are shown in FIG. 4.
# [5] = Absorption spectra in methanol; type: physicochemical; conditions: 298 K
# From the text: FIG. 2 is a graph of the absorption spectra of Ln(III) MC complexes (2.04·10^−5 M, Ln(III)=Gd, Nd, Yb, Er) and quinaldichydroxamic acid (quinHA) (2.42·10^−4 M) in methanol at 298 K, where the absorption spectrum of quinHA was multiplied by 16 times;
# Upon deprotonation and formation of the metallacrown framework, Ln(III)[12-MC-4]2[24-MC-8], a broad absorption appears in the near-visible region with an apparent maximum at 380 nm (ε≈5.5·10^4 M^−1 cm^−1) and cutoff at 470 nm. In FIG. 2, the results are shown for the Gd(III), Nd(III), Yb(III), and Er(III).
# [6] = intersection of absorption and emission spectra
# [7] = excitation 290 nm, 77 K, methanol
Compound,"τobs ([1]; CD3OD, 1 mg/mL)","τobs ([1]; CH3OH, 1 mg/mL)",τobs ([1]; Solid),"QLn/%L (quantum yield) ([2]; CD3OD, 1 mg/mL)","QLn/%L (quantum yield) ([2]; CH3OH, 1 mg/mL)",QLn/%L (quantum yield) ([2]; Solid),"τobs ([1]; CD3OD, 0.1 mg/mL)","τobs ([1]; CH3OH, 0.1 mg/mL)","q (inner sphere hydration number) ([1]; CH3OH, 0.1 mg/mL)","q (inner sphere hydration number) ([1]; CH3OH, 1 mg/mL)","QLn/%L (quantum yield) ([2]; CD3OD, 0.1 mg/mL)","QLn/%L (quantum yield) ([2]; CH3OH, 0.1 mg/mL)",energy of the triplet state [4],other results
ErZn16(quinHA)16(OTf)3 [Er(III)MC],11.40(3) μs,1.25(1) μs,5.73(2) μs,3.60(6) · 10^−2%,9.9(3) · 10^−4%,4.2(1) · 10^−2%,–,–,–,–,–,–,–,–
YbZn16(quinHA)16(OTf)3 [Yb(III)MC],150.7(2) μs,14.88(1) μs,47.8(4) μs,2.88(2) %,0.25(1) %,2.44(4) %,144.6(5) μs,15.14(4) μs,0,0,2.91(7) %,0.27(1) %,–,"emission in the NIR range of treated cells ([3]; Experiment 1: 1 μM, 24 hours, λex=377 nm, long pass 805 nm, 500 ms exposure): unambiguously detected; Yb(III) emission in the NIR range of treated cells ([3]; both experiments (1 μM 24 h; 5 μM 11-12 h), short exposure times): unambiguously detected"
NdZn16(quinHA)16(OTf)3 [Nd(III)MC],4.11(3) μs,1.16(1) μs,1.79(2) μs,1.35(1) %,0.38(1) %,1.13(4) %,4.00(1) μs,1.16(1) μs,0,0,1.38(1) %,0.40(1) %,–,–
GdZn16(quinHA)16(OTf)3 [Gd(III) metallacrown complex],–,–,–,–,–,–,–,–,–,–,–,–,20 920 cm^−1,"emission maximum ([4]; 77 K, time delay of 100 μs): 510 nm; emission maximum ([4]; excitation 340 nm, 77 K): 545-555 nm; emission maximum ([4]; excitation 340 nm, room temperature, weak broad-band emission): 580-590 nm; position of the ligand-based charge transfer (CT) state [4, 6]: 21 560 cm^−1"
"O=C(NO)c1ccc2ccccc2n1 [quinHA, quinaldichydroxamic acid]",–,–,–,–,–,–,–,–,–,–,–,–,21 000 cm^−1,"long wavelength absorption cutoff [5]: 340 nm; green luminescence (phosphorescence) centre [4, 7]: 510 nm; weak band (short-lived fluorescence) [4, 7]: 325-460 nm; emission upon UV excitation ([4]; excitation 290 nm, room temperature, methanol): did not display any detectable emission; position of the lowest excited singlet state [4, 6]: 29 850 cm^−1; melting point: 146 to 148 °C"
